Experimental data: patent publication US11571484B2, “Compositions that target tumor-associated macrophages and methods of use therefor” (Sanford Burnham Prebys Medical Discovery Institute, priority 2017, dated 2023)
Where “and” joins values, the source holds several entries; their conditions need not be identical. Equal values may be shown once. Ends that are not written are not given here. FAM = 5(6)-carboxyfluorescein; Ahx = NCCCCCC(=O)O

Experiments:
MEMs in WT-GBM tumors = assay: Free peptide homing and immunofluorescence in the orthotopic WT-GBM glioblastoma model; details: 30 nmoles i.v., 2 h
Method: Thirty nmoles of FAM-UNO or FAM-control peptide were injected intravenously into mice and allowed to circulate for 2 h. Mice were then sacrificed and tumor and tissues were analyzed by immunofluorescence using rabbit anti-FAM (green) and rat anti-CD206 (red) antibodies, and counterstained with DAPI. […] The metastases were induced by i.v. inoculation of B16F10 melanoma cells. […] Blue: DAPI. Representative fields from multiple sections (n≥3) prepared from at least 3 tumors are shown. Scale bar: 50 μm. Images shown are representative fields from multiple sections (≥3) prepared from at least 3 tumors (n≥3 mice). The graphs show mean+SEM of FAM signal quantified as described in Materials and Methods.
Tumor models were induced according to protocols approved by the Estonian Ministry of Agriculture, Committee of Animal Experimentation (permit #48). For the 4T1 breast model, 8-week old female Balb/c mice were injected in the mammary fat pad with 10^6 cells dispersed in 50 μL of PBS. For homing studies, mice were used 10 days later, when the tumor had reached ˜150 mm^3. For MCF-7 breast model, 8-week old female nude mice were implanted with an estrogen pellet, and 1 week later inoculated with 5×10^6 MCF-7 cells in 100 μL of cold Matrigel (BD Biosciences, CA, USA). Mice were used for homing studies three weeks later (tumor volume˜150 mm^3). For the metastatic gastric carcinoma, 10^6 MKN45-P cells in PBS were injected intraperitoneally in 8-week old female nude mice. Mice were used for homing studies two weeks later. For the metastatic melanoma model, 2×10^5 B16F10 cells were injected intravenously in 100 μL of PBS in C57 BL6 mice. The mice were used for homing studies 10 days after. For the angiogenic glioblastoma model, WT-GBM 24, 7×10^5 cells were stereotactically injected in the right striatum of Fox/Nu mice 2 mm lateral and posterior of bregma of 2.5 mm deep. The mice were used for homing studies 6-7 days after the injection.
For free peptide homing studies, mice were injected intravenously with 30 nmoles of FAM-peptides in 100 μL of PBS. For nanoparticle homing studies-FAM-UNO—NP-PTX-, mice were injected intravenously in mice bearing MCF-7 breast tumors with 1 mg of Polymer in 100 μL pf PBS and allowed to circulate for 6 h. For tissue collection, the mice were anesthetized and the tissues collected and immediately placed in 4% cold PFA and left overnight at 4-C. Tissues were washed with PBS for 2 h at room temperature and cryoprotected with sucrose 15% at 4-C overnight and then in sucrose 30% at 4·C overnight. […] FAM was detected using Rabbit anti-FITC (Invitrogen, CA, USA. Catalog # A-889) at a dilution of 1/100 and using Alexa Fluor-546 anti-rabbit antibody (Invitrogen, Ca, USA. Catalog # A-11035) at a dilution of 1/200.

[1] = test system: peritoneal cells (CCR2+ macrophages) of 4T1 tumor-bearing mice; assay: Flow cytometry of FAM-peptide binding to peritoneal cells from 4T1 tumor mice; assay type: cell-based, mouse
Method: A, Change in fluorescence anisotropy of FAM-UNO (dotted line) and FAM-UNO in DTT (solid line) while incubating with mouse recombinant CD206. B, Change in fluorescence anisotropy of FAM-CSPGAK with mouse recombinant CD206 (solid line) or with CD163 (dotted line) and of FAM-CPMTDNE (control) with CD206 (dashed line). C, FAM-UNO binds selectively to CCR2^+ macrophages collected from the peritoneal cavity of 4T1 tumor-bearing mice, as 94.3% of FAM^+ cells are CCR2^+ cells. The analysis was done gating for the FAM^+ population (left panel). In these 4T1 tumor bearing mice, 58% of peritoneal cells are macrophages, i.e. CCR2^+ cells (right panel). D, FAM-UNO binding to peritoneal cells is inhibited by preincubating with 10 µg/mL of anti-CD206, whereas the preincubation with anti CD206 antibody had no effect on FAM-LyP-1 binding. In panels A and D are shown representative graphs from three independent experiments. In panels c and d are shown results from three independent experiments (n=3 mice) and bars of panel D represents mean+SEM.
Peritoneal cells were extracted from Balb/c mice 2 weeks after inoculation of 10^6 cells orthotopically). Mice were anesthetized and intraperitoneally injected with 5 mL of PBS+1% BSA, the abdomen was massaged to detach macrophages and the peritoneal fluid was collected. This procedure typically yielded 5-9×10^6 cells. Cells were concentrated to 1 mL in the same peritoneal fluid. For FAM-peptide incubation, the peptides were incubated for 30 minutes at 4° C. For antibody incubation the cells were incubated with antibody for 1 h at 4° C. A647 Rat anti-CCR2 (Biolegend, CA, USA. Catalog number 150603) was incubated for 1 h at 4° C. at a dilution of 1/200. FAM-peptides were incubated at a concentration of 0.5 μg/mL, and Rat anti-CD206 (Bio-Rad, CA, USA. Product code MCA2235GA) was incubated at a concentration of 10 μg/mL. Binding of FAM-peptides was monitored with 488 nm channel and CCR2 labeling was assessed in the 647 nm channel using A647 Anti-CCR2 (Biolegend, CA, USA). After incubation of FAM-Peptides or antibodies, the cells were washed 3 times at 4° C. with PBS-Tby centrifugation at 250 g for 6 minutes, followed by flow cytometry analysis (Accuri, BD Biosciences, CA, USA).

In the case of “FAM-UNO: FAM-labeled UNO peptide CSPGAKVRC (SEQ ID NO: 1); 5(6)-carboxyfluorescein with 6-aminohexanoic acid spacer at the N-terminus ({FAM-Ahx}-CSPGAKVRC; cysteine pairing not given here)”, the accumulation in tumor (MEMs in WT-GBM tumors) is reported as “accumulated in the tumor areas containing MEMs”, the “signal in normal brain parenchyma” value (MEMs in WT-GBM tumors) is reported as “No signal” and the “cells gated for CCR2+ that were positive for FAM-UNO binding” value ([1]; 0.5 μg/mL peptide, 30 min, 4 °C) is reported as 94%. The “reduction of binding to peritoneal cells by pre-incubation with anti-CD206 antibody” value ([1]; anti-CD206 10 μg/mL) was 25% and the “FAM+ cells that are CCR2+ cells (macrophages)” value ([1]; gated for the FAM+ population, 0.5 μg/mL peptide, 30 min, 4 °C) was 94.3% and 95%.
